Paper PMC2766550 (Peptides, 2009)
Several values for one entry are separate records, joined by “and”; a condition that tells them apart may be missing. Equal entries are not always repeated. Where two headings read alike, the source gives them in different places. Square brackets hold non-standard residues; d marks the D form. Peptide text beside a SMILES is read from it. dPhe(F5) = N[C@H](Cc1c(F)c(F)c(F)c(F)c1F)C(=O)O

Legend:
hGRP-receptor [1] = target: T1, hGRP-receptor (Homo sapiens, UniProt P30550); experiment: [3H]inositol phosphate generation, HuTu-80 cells; type: cell-based; details: for [3H]IP HuTu-80 (hGRP-R) Ag/Antag: agonist/antagonist classification, up to 10 μM
T1 sequence (P30550 whole entry): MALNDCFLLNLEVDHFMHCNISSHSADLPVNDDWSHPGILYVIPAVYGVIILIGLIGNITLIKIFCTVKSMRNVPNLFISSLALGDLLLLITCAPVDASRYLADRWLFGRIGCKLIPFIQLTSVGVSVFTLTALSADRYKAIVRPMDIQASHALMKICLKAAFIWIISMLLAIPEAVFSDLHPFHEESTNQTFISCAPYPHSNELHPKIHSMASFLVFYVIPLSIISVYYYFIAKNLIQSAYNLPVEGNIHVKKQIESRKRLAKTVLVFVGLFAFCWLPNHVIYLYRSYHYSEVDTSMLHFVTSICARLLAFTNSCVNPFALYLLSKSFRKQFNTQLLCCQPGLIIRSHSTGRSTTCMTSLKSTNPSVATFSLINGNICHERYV

hNMB-receptor [2] = target: T2, hNMB-receptor (Homo sapiens, UniProt P28336); type: cell-based; details: for [3H]IP hNMB-R-Balb-3T3 Ag/Antag: agonist/antagonist classification, up to 10 μM; for agonist activity at hNMB-receptor: concentrations up to 10 μM, hNMB-receptor transfected Balb 3T3 or NCI-H1299 cells
T2 sequence (P28336 whole entry): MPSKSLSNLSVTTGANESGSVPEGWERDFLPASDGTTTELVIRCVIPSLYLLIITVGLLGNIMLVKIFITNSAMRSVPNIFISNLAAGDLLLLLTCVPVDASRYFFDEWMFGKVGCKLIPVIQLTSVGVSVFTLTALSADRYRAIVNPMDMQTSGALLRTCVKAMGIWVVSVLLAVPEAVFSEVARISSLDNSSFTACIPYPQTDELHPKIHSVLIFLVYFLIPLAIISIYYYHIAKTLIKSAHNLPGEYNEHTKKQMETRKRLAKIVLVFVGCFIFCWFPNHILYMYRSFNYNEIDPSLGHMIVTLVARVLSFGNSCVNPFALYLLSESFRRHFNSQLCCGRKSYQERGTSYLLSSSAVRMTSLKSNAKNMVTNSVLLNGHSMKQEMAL

hGRP-receptors = details: cited from earlier work
hNMB-receptor [3] = target: T2, hNMB-receptor; experiment: cell-based; details: for [3H]IP NCI-H1299 (hNMB-R) Ag/Antag: agonist/antagonist classification, up to 10 μM
hGRP-receptor [4] = target: T1, hGRP-receptor; experiment: Whole cell radioligand binding, HuTu-80 cells
hBRS-3 receptor = target: T3, hBRS-3 receptor (Homo sapiens, UniProt P32247); experiment: Whole cell radioligand binding, hBRS-3 transfected Balb 3T3 cells
T3 sequence (P32247 1-399): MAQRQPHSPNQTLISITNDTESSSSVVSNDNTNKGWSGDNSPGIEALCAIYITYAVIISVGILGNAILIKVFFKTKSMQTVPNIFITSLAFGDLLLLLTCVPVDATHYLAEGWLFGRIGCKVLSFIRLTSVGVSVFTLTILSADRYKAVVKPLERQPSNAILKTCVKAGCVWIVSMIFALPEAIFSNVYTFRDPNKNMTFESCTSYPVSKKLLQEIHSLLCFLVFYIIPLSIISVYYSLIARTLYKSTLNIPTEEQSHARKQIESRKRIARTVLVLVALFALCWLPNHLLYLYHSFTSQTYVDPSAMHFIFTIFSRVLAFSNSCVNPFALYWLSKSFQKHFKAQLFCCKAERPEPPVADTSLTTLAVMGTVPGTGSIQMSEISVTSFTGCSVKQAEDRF

hGRP-receptor [5] = target: T1, hGRP-receptor; experiment: [3H]inositol phosphate generation, hGRP-receptor transfected Balb 3T3 cells; type: cell-based; details: for [3H]IP hGRPR-R-Balb-3T3 Ag/Antag: agonist/antagonist classification, up to 10 μM
hNMB-receptor [6] = target: T2, hNMB-receptor; experiment: Whole cell radioligand binding, hNMB-receptor transfected NCI-H1299 cells
hNMB-receptor [7] = target: T2, hNMB-receptor; details: cited from earlier work
hNMB-receptor [8] = target: T2, hNMB-receptor; experiment: Whole cell radioligand binding, hNMB-receptor transfected Balb 3T3 cells; details: for IC50: IC50 hNMB-R Balb-3T3, hNMB-receptor transfected Balb 3T3 cells, 125I-[D-Tyr0]NMB, 1 h, 22°C, mean ± S.E.
hGRP-receptor [9] = target: T1, hGRP-receptor; experiment: Whole cell radioligand binding, hGRP-receptor transfected Balb 3T3 cells; details: b34 values for receptors expressed in Balb 3T3 cells

[3H]IP HuTu-80 (hGRP-R) Ag/Antag (hGRP-receptor [1]) | [3H]IP hNMB-R-Balb-3T3 Ag/Antag (hNMB-receptor [2]) | agonist activity at hNMB-receptor (hNMB-receptor [2]) | [3H]IP NCI-H1299 (hNMB-R) Ag/Antag (hNMB-receptor [3]) | [3H]IP hGRPR-R-Balb-3T3 Ag/Antag (hGRP-receptor [5]) | SMILES | IC50 (hGRP-receptor [1]) | IC50 (hGRP-receptor [4]) | IC50 (hBRS-3 receptor) | IC50 (hNMB-receptor [6]) | IC50 (hNMB-receptor [3]) | IC50 (hNMB-receptor [8]) | IC50 (hGRP-receptor [5]) | selectivity for hGRP-receptor over hNMB-receptor (binding affinities) (hGRP-receptor [9]) | further results
Antag | Antag | did not have agonist activity | Antag | Antag | COc1ccc(C2(CNC(=O)C(C)(Cc3c[nH]c4ccccc34)NC(=O)Nc3ccc([N+](=O)[O-])cc3)CCCCC2)nc1 (centres unmarked) [Peptide 33, 3-(1H-Indol-3-yl)-N-[1-(5-methoxy-pyridin-2-yl)-cyclohexylmethyl]-2-methyl-2-[3-(4-nitro-phenyl)-ureido]-propionamide, reference compound] | 275 ± 13 nM | 170 ± 11 nM | > 10000 nM |  |  |  |  |  | affinity for hGRP-receptors in a second study (hGRP-receptors): 20 to 30 nM; Ki (hGRP-receptors; read-out: Ki for hGRP-receptors in a previous study): 1 nM
Antag | Antag | did not have agonist activity | Antag | No act | CC(Cc1c[nH]c2ccccc12)(NC(=O)Nc1ccc([N+](=O)[O-])cc1)C(=O)NCC1(c2ccccn2)CCCCC1 (centres unmarked) [Peptide 34, 3-(1H-Indol-3-yl)-2-methyl-2-[3(4-nitro-phenyl)-ureido]-N-(1-pyridin-2-yl-cyclohexylmethyl)-propionamide, reference compound] | 1780 ± 57 nM | 1740 ± 105 nM | > 10000 nM | 0.25 ± 0.02 nM | 24.5 ± 1.2 nM | 0.51 ± 0.02 nM | > 3000 nM |  | hGRPR Ag/Antag (hGRP-receptor [1]; Table 5 species comparison, human values of this study (HuTu-80)): Antag; hNMB- or rNMB-receptor selectivity in other studies (hNMB-receptor [7]): 40 fold; IC50 (hNMB-receptor [7]; read-out: IC50 for hNMB-receptors, other studies on human cells): 15 nM; selectivity for hNMB-receptor over hGRP-receptor based on potency for inhibiting agonist-stimulated [3H]IP (hNMB-receptor [2]): 33 to 100 fold; hNMBR Ag/Antag (hNMB-receptor [3]; Table 5 species comparison, human values of this study (NCI-H1299)): Antag; selectivity for hNMB-receptor over hGRP-receptor (binding affinities) (hNMB-receptor [8]; listed as PD168368): 7,000 fold
 |  |  |  |  | COC(=O)[C@H](CC(C)C)NC(=O)[C@H](Cc1c[nH]cn1)NC(=O)CNC(=O)[C@@H](NC(=O)[C@H](C)NC(=O)[C@H](Cc1c[nH]c2ccccc12)NC(=O)[C@H](CCC(N)=O)NC(=O)[C@H](N)Cc1ccccc1)C(C)C [Peptide 17, [D-Phe^6]Bn-(6-13)Methyl ester (ME)] | 10.9 ± 1.5 nM | 3.98 ± 0.8 nM | 5290 ± 1990 nM | > 10000 nM | > 10000 nM | > 10000 nM | 15.5 ± 1 nM | > 10,000 fold | 
 |  |  |  |  | COC(=O)[C@H](CC(C)C)NC(=O)[C@H](Cc1c[nH]cn1)NC(=O)[C@@H](C)NC(=O)[C@@H](NC(=O)[C@H](C)NC(=O)[C@H](Cc1c[nH]c2ccccc12)NC(=O)[C@H](CCC(N)=O)NC(=O)[C@H](N)Cc1c(F)c(F)c(F)c(F)c1F)C(C)C [Peptide 18, [D-F-5, Phe^6, D-Ala^11]Bn(6-13)Metyl ester (ME)] (H-[dPhe(F5)]QWAV[dA]HL-OMe) | 4.2 ± 0.9 nM | 0.12 ± 0.01 nM | > 10000 nM | > 10000 nM |  | > 10000 nM | 3.6 ± 0.2 nM | > 11,000 fold and > 10,000 fold | 
 |  |  |  |  | CCCNC(=O)[C@H](CC(C)C)NC(=O)[C@H](Cc1c[nH]cn1)NC(=O)CNC(=O)[C@@H](NC(=O)[C@H](C)NC(=O)[C@H](Cc1c[nH]c2ccccc12)NC(=O)[C@H](CCC(N)=O)NC(=O)[C@H](N)Cc1ccccc1)C(C)C [Peptide 11, [D-Phe^6-Bn](6-13)Propylamide (PA)] | 36.3 ± 1 nM | 0.39 ± 0.12 nM | 1910 ± 300 nM | 3090 ± 70 nM |  | 2440 ± 160 nM | 31 ± 1 nM | ≥ 1,000 fold | 
